As usually defined, the melting point is the temperature, or range, at which the solid turns liquid.

Data on 87 compounds can be found in a melting point compilation (Tetko et al.; mined from patent text by program, amines drawn as free bases though some values may be those of a salt).

Molecules are shown by their SMILES.

Compound `O=C(NCC12CC3CC(CC(C3)C1)C2)c1cc(-c2ccccc2C(=O)O)ncc1Cl` had a melting point of 134 to 138 °C. In turn, `O=C(c1ccccc1)N1CC(c2ccccc2)c2ccccc21` (configuration not stated) had a melting point of 127 to 129 °C. As for `CSc1c(C)c(-c2ncc(Cl)cc2F)nn1C`, the figure is 61 to 64 °C; as for `COC(=O)NC(Cc1c[nH]c2ccccc12)C(=O)OCc1cc(C)cc(C)c1` (configuration not stated), 128 to 129 °C. As for `COc1ccc(C=Cn2ncc3ccccc3c2=O)cc1`, the figure is 267 to 269 °C.

Consider `CCCCCCCCCCCCCCCC(=O)Nc1cc(C(=O)O)ccc1C`, for which the melting point is 238 to 240 °C.

Consider `COC(=O)C1(C(F)F)c2ccccc2Oc2ccccc21`, for which the melting point came out at 101 °C.

`NS(=O)(=O)c1cc(C(=O)O)cc(SCc2ccccc2)c1Sc1ccccc1` showed a melting point of 208 to 209 °C.

Regarding `FC(F)c1nc2ccccc2n1-c1nc(Nc2cncnc2)nc(N2CCOCC2)n1`, the melting point was in the range of 290 to 292 °C. Compound `CO[C@@H]1CN(CCCn2nc(Cl)ccc2=O)CC[C@@H]1NC(=O)c1cc(Cl)c(N)c2c1OCCC2` (relative stereo) showed a melting point of 150 °C. As for `C=C(C)COc1c(C)c(CCC=O)c2c(c1C)CC(C)(C)O2`, the figure is 55.5 to 56 °C; as for `O=C(Nc1ccc(F)c(C(F)(F)F)c1)Nc1ccc(OCc2ccccc2)cc1O`, 188 to 191 °C. As for `COc1ccc(-c2ccc3c(c2)C2(CO3)C(=O)N(Cc3ccc(Cl)s3)c3ccccc32)cn1` (configuration not stated), the figure is 60 to 62 °C.

On to `COc1ccc(CNc2nc(N3CCC[C@H]3CO)cnc2C(=O)O)cc1Cl`, for which the melting point lay within 169 to 171 °C.

On to `Cc1c(-n2ccnc2)n(CCCCCCCC(=O)O)c2ccccc12`, for which the melting point fell in the range of 101 to 103 °C. As for `CCSCCn1c(=N)sc2cc(OC(F)(F)C(F)(F)F)ccc21`, the figure is less than 50 °C; as for `COc1ccc2cc([C@H](C)C(=O)OC[C@@H]3NC(=O)[C@@H](C(C)(C)S)NC3=O)ccc2c1`, more than 180 °C; as for `CN1C=C(C(=O)O)C(=O)CC1c1ccc(Cl)cc1` (configuration not stated), 205 to 206 °C. As for `FC(F)(F)c1cccc(C(CC2=NCCN2)c2ccc3ccccc3n2)c1` (configuration not stated), the figure is 92 to 93 °C. Then `C[C@@H](n1cnn(-c2ccc(OCC(F)(F)C(F)F)cc2)c1=O)[C@@]1(c2ccc(F)cc2F)CO1`, with 116 to 117 °C; and `CC(=O)NCCCNC(=O)c1cc2c(ccc3cnn(C[C@H](C)N)c32)o1`, with 81 °C.

Compound `C=CCNC(=O)C1C=C(O)c2cc(Cl)ccc2O1` (configuration not stated) had a melting point of 129 to 130 °C. As for `O=C(Cc1ccncc1)NC(Cc1csc2ccccc12)C(=O)CCc1cc(C(F)(F)F)cc(C(F)(F)F)c1` (configuration not stated), the figure is 184 to 187 °C. As for `O=C(O)C=C1SC(=NC2CCCCC2)N(C2CCCCC2)C1=O`, the figure is 189 to 190 °C. As for `Cn1cc(CC(=O)O)c(OCCCc2cn(-c3ccc(C(F)(F)F)cn3)nc2C2CCCCC2)n1`, the figure is 157 to 158 °C; as for `CN(C)c1ccc(C2CCc3ccccc3O2)cc1` (configuration not stated), 77 to 78 °C. `Cc1nc(NC(=O)c2cnn3c(C(F)F)cc(-c4ccc(C(F)(F)F)cc4)nc23)sc1S(N)(=O)=O` gave a melting point of 284 °C. In turn, `CC(C)(C)c1cc(=S)cc(C(C)(C)C)s1` displayed a melting point of 162 °C. `CC1(C)OC(=S)Nc2ccc(-c3csc(C#N)c3)cc21` displayed a melting point of 242 to 243 °C. Then `Cc1cccc(Nc2cc(Nc3ccc(OCCN(C)C)cc3)ncn2)c1`, with 219 to 222 °C; and `CC(C)n1nc(-c2nc(O)cnc2-c2ccccc2)ccc1=O`, with 198 to 200 °C; and `CCNC(=O)N1CCc2ccc(S(=O)(=O)NC(=O)NC3CCCCC3)cc2CC1`, with 158 to 160 °C. Then `COc1ccncc1Nc1nc(N2CCOCC2)nc(-n2c(C(F)F)nc3c(OC)cccc32)n1`, with 239 to 241 °C; and `COc1ccc(C2=NN(C3CCN(C(=O)CCCOc4ccc5[nH]c(=O)ccc5c4)CC3)C(=O)CC2)cc1OC`, with 169 to 171 °C; and `Cc1ccc(C(=O)OC2CCN(Cc3ccccc3[N+](=O)[O-])CC2)cc1`, with 86 to 87 °C.

As to `O=C(O)Cc1ccccc1Oc1ccc(C(F)(F)F)cc1[N+](=O)[O-]`, the melting point lay in the range of 165 to 167 °C. Then `C=C(CC(O)C(=O)OCC)CC(NC=O)(C(=O)OCC)C(=O)OCC` (configuration not stated), with 68 °C; and `CC(C)(C)C(=O)Nc1c(F)cc(F)cc1C#Cc1ccc(SC2CCOCC2)cc1`, with 148 to 149 °C. For `COC(=O)c1cc(C(=O)c2c(C)c(OC)c3c(OCC(=O)O)cccn23)ccc1N`, the melting point was 164 °C.

The compound `COc1ccc(-n2nnnc2C)cc1C=O` returned a melting point of 132 to 134 °C. As for `CC(CO)c1ccc2cc(OCc3ccc4ccccc4n3)ccc2c1` (configuration not stated), the figure is 129 to 131 °C.

The compound `CC(C)c1nn(-c2ccc(C(F)(F)F)cn2)cc1CCCOc1cc(CCC(=O)O)n(C)n1` yielded a melting point of 131 to 132 °C. As for `CN1CCC(OC2c3ccccc3CC(C)(C)n3cc(-c4ccccc4)nc32)CC1` (configuration not stated), the figure is 85 °C; as for `CC1(C)C(=O)Nc2cc(C(=O)CBr)ccc21`, 230 to 232 °C; as for `O=C(NCc1ccncc1)c1cccc2c1OCCO2`, 120 to 121 °C.

Turning to `O=C1CCc2ccc(NC(=O)c3cc4cccnc4n3Cc3cccc(F)c3)cc2N1`, the melting point was in the range of 280 to 282 °C. Then `Cc1ccnc2[nH]c(=O)c(CC(=O)N(CCNC(=O)OC(C)(C)C)CC(=O)O)cc12`, with 133 to 136 °C. Then `O=C(c1ccc2c(=O)n(CCCCN3CC=C(c4ccccc4)CC3)c(=O)[nH]c2c1)N1CCOCC1`, with 206 to 210 °C. Then `CCN(CC)CC1CCCCN1CCNC(=O)N1c2ccccc2NC(=O)c2csc(C)c21` (configuration not stated), with 132 to 133 °C; and `O=C1Nc2ccccc2SC1CCCCCl` (configuration not stated), with 111 to 112 °C. Turning to `COc1cccc2c1CC(CC=O)C2=O` (racemic), the melting point was 71 °C. Take `CCN(CC)C(=O)c1c(C(=O)NN=Cc2ccc(Cl)cc2)[nH]c2ccccc12`: the melting point is 255 to 257 °C.

The compound `O=C(NN=Cc1c(O)ccc2cc(O)ccc12)c1cc2ccccc2cc1O` displayed a melting point of more than 280 °C.

Turning to `O=C1c2cc3nnn(C4CCC4)c(=O)c3cc2OC2CCCN12` (configuration not stated), the melting point was in the range of 216 to 218 °C.

`Cn1c(=O)c(C#N)c(N2CCNCC2)c2cc(Cl)ccc21` registered a melting point of 223 °C.

Consider `CCOC(=O)Cc1ccc(NC(=O)C(COc2ccccc2Cl)NS(=O)(=O)c2ccc(I)cc2)cc1` (racemic), for which the melting point is 140 to 142 °C. As to `CCCCCCCCCCCCCCCCCCC(N)C(N)=O` (configuration not stated), the melting point lay within 103 to 104 °C. Then `O=Cc1cc2cc(O)c(Cl)c(Cl)c2s1`, with 197 to 198 °C; and `COc1ccc(-c2cc(=S)n(Cc3cccnc3)nc2-c2ccc(OC)cc2)cc1`, with 163 to 164 °C; and `Cc1nc2n(c(=O)c1CCN1CCC(=C(c3ccccc3)c3ccccc3)CC1)CCCS2`, with 176 °C. As for `CC1CN(c2ccccc2)c2ccccc2N1` (configuration not stated), the figure is 91 to 93 °C; as for `C#Cc1ccc(C2SCC(C(C)(C)C)CS2)cc1` (configuration not stated), 149 °C. Then `Cc1coc2c1C(C)(O)C1=C(CCCC1C)C2=O` (configuration not stated), with 139 to 141 °C. Regarding `CCCCCCCCn1c(C)cc2ccccc21`, the melting point is 121 to 123 °C. Then `O=S(=O)(c1ccccc1)c1ccc(/C=C/C(O)(C(F)F)C(F)F)cc1`, with 123 to 124 °C. Then `CN(C)Cc1ccccc1-c1ccc(C(=O)N2Cc3ccc(C(=O)NCc4cccnc4)n3Cc3ccccc32)cc1`, with 95 to 104 °C. As for `CNC(=O)c1cnn(-c2ccccc2)c1Br`, the figure is 157 to 159 °C; as for `C=CCN(C(=O)c1ccco1)c1c(C)cccc1C`, 68 to 69 °C; as for `O=C(/C=C/C=C/c1cccc2ccccc12)NCCCCCC(=O)NO`, 143 to 145 °C. For the compound `CC(C)S(=O)(=O)c1ccc2c(c1)nc(CC(C)(C)C)n2CCN(C)C`, the melting point came to 116 °C. Then `CCOC(=O)c1c(CCl)nc2sc3c(c2c1-c1ccc(OC)c(OC)c1)CCN(C(=O)c1ccc(Cl)cc1)C3`, with 132 to 133 °C; and `CC(C)(C)OC(=O)N1CC[C@H](CNCc2ccccc2)[C@@H](O)C1`, with 91 °C.

Regarding `CC1(C)SC(=S)N(c2ccccn2)C1O` (configuration not stated), the melting point was 80 °C.

`COc1ccc(-c2[nH]nc3c2C(=O)c2c(NC(=O)NNC(=O)c4ccc(N)cc4)cccc2-3)cc1` gave a melting point of 247 °C. Then `N#Cc1[nH]c(Br)c(-c2ccc(Cl)cc2)c1Br`, with 191 to 194 °C. Then `Nc1ccc(NC(=O)NCc2ccc3c(c2)CN(C2CCC(=O)NC2=O)C3=O)cc1` (configuration not stated), with more than 400 °C; and `CC(C)c1cccc(C(C)C)c1NC(=O)N(Cc1ccccc1)CC1(c2ccccc2)CCCC1`, with 124 to 127 °C; and `CCCCCCCCCCCCCCCCN(CCCCCCCCCCCCCCCC)C(CCCCN)C(=O)O` (configuration not stated), with 124 to 125 °C. As for `CCCCc1ncc(CC(Cc2ccccc2)C(=O)OC)n1Cc1ccccc1Cl` (configuration not stated), the figure is 118 to 120 °C; as for `CCN(CC)CCNc1cc(Sc2ccc(Cl)cc2)nc(-c2ccccc2)n1`, 83.5 to 86 °C. Regarding `O=S(=O)(NC(c1ccc(F)cc1)c1ccnn1-c1ccc(F)cc1)c1ccc(Cl)s1` (configuration not stated), the melting point lay within 159 to 160 °C. Then `CC(=O)Nc1ccc(OC(=O)CO)cc1`, with 144 to 146 °C; and `N#CC(C#N)=C1N(CCCN2CCCCC2)CCCN1CCCN1CCCCC1`, with 88 to 90 °C; and `CN(C)C1(c2ccccc2Cl)C(=O)N(Cc2ccc(C(=O)NC(C)(C)C)cc2)c2ccc(Cl)cc21` (configuration not stated), with 177 to 178 °C.

Compound `COc1cc(OC)c(C=O)cc1I` yielded a melting point of 170 to 172 °C. `O=C1c2ccccc2-n2cnc(-c3noc(CCl)n3)c2[C@@H]2CCN12` yielded a melting point of 205 to 207 °C. Then `O=C(O)c1nn(-c2ccc(Cl)cc2Cl)c2c1CCc1c(Br)csc1-2`, with 239 to 242 °C.
